≈ marks a conversion by molar mass, not a printed value. Structures can show the parent of a compound that is named as a salt. Marks after values point to notes of the source that are not given here.
Tests used:
[1] = Accelerated aging conditions (AAC), solid form remeasured by XRPD; format: physicochemical; conditions: 3 days at 40° C. and 75% RH
Method: All solids were exposed to AAC (40° C./75% RH for 3 days) and remeasured by HT-XRPD. After that, 750 μl of a selected solvent was added. The vials were transferred to a Crystal16™ parallel crystallizer and the suspensions were stirred at 750 rpm at 50° C. for 18h after which the suspensions were subjected to centrifugation and the solids were isolated, dried under vacuum (50° C., 5 mbar, 18 h) and analyzed by HT-XRPD. The experimental conditions and results are shown below in Table 1 and Table 2 for the first and second set of experiments, respectively. The obtained XRPD patterns for the crystallinesalts made are shown in FIGS. 1 (HCl), 2 (Mao) and 3 (Mes).
Experimental conditions and results of the hydrochloride and malonic acid salt crystallization experiments. In all experiments, 750 μl of solvent was used. Counterion (Cl) abbreviations denote pure counterions whereas counterions with a number denote novel salt forms. After subjecting suspensions of API:Cl to thermocycles, the solids were isolated, dried (5 mbar, 50° C., 18 h) and analyzed by XRPD. The liquid phases were dried, and the resulting solids were analyzed by XRPD. Most solids were subjected to AAC (40° C., 75% RH, 3 days) and remeasured by XRPD.

[2] = Dynamic vapor sorption (hygroscopicity / moisture sorption); format: physicochemical
Method: Differences in hygroscopicity (moisture uptake) of the various forms of a solid material provided a measure of their relative stability at increasing relative humidity. Moisture sorption isotherms of small samples were obtained using a DVS-1 system from Surface Measurement Systems (London, UK); this instrument is suitable for use with a few milligrams of sample, with an accuracy of 0.1 μg. The relative humidity was varied during sorption-desorption-sorption (40-95-0-40% RH) at a constant temperature of 25° C. Weight equilibration per step was set at dm/dt <0.0002 mg/min for a minimum of 1 hour or maximum of 6 hours. Afterwards the sample was measured by HT-XRPD.
The hygroscopicity was classified according to the European Pharmacopoeia Hygroscopicity classification. Water uptake percentage at 25° C./80%RH (24h) is:
Change in mass <0.2%—Non-hygroscopic
Change in mass >2% & <15%—Moderately hygroscopic
Change in mass >15%—Very hygroscopic

[3] = Pharmacokinetic characterization after i.v. and p.o. administration to male CD-1 mice; format: in vivo; conditions: for CL as % of mouse liver blood flow: liver blood flow 120 ml/min/kg
Method: IV formulations were prepared on the day of dosing. The formulations were prepared by weighing the compound into brown glass vial; on the day of dosing ClinOleic 20% intravenous fat emulsion ([…], Tamro) was added into tubes (1,5 mg/mL in 20% ClinOleic). Formulations were homogenized 5 minutes before dosing. IV formulations were administered within 5 hours after preparation.
PO formulations were prepared day before administration. The formulations were prepared by formulating the test items in PO vehicle (6 mg/ml in 0.45% (v/v) Tween 80-0.11% (w/v) sodium carboxy methylcellulose (CMC) in tap water). The suspensions were mixed with vortex and stored refrigerated (+4° C.) over night. On the day of dosing formulations were homogenized 15 minutes before dosing.
Naïve animals were used in the study (see Table 6). They were housed in individually ventilated (IVC)-cages in groups of six mice. The cages were provided with aspen bedding (4HP and PM90L, Tapvei, Estonia) and paper strands (Sizzlenest, Datesand, UK) as nesting material, and a paper pulp cabin and red polycarbonate cylinder (Datesand, UK) as cage enrichment. The temperature (22±2° C.), humidity (55±10%) and air exchange rate (75 times/h) of the IVC-cages and 12/12-h light/dark cycle (500 lux lighting on at 6 a.m., 1.5 lux lighting […].) of the animal holding room were automatically controlled and maintained. Animals were allowed to acclimatize to the site for at least five days prior to the study. Animals had ad libitum access to food (SDS diets, RM1 (E) 801002, Special Diets Services, UK) and tap water at all times, and their welfare was assured with daily observations.
Study compounds were administered via the specified route and the times of dosing and blood sampling were recorded. Within 30 min following the sampling, the blood was centrifuged for plasma separation (room temperature; 10 min; 2700 G). The plasma samples were transferred into plastic tubes, frozen and stored at −20° C. until analysis. Clinical signs and general behavior of the animals were recorded, when necessary.
The pharmacokinetic parameters were calculated using Phoenix 64 (Build 6.4.0.768) WinNonlin (version 6.4) software, using non-compartmental methods (NCA). Nominal doses were used for all animals. The terminal phase half-life (T1/2) was calculated by least-squares regression analysis of the terminal linear part of the log concentration—time curve. The area under the plasma concentration—time curve (AUC) was determined with the linear trapezoidal rule for increasing values and log trapezoidal rule for decreasing values up to the last measurable concentration (AUC0-last), and extrapolation of the terminal elimination phase to infinity was used when possible; the following criteria were used:
Minimum of 3 points (not including Cmax) used to calculate lambda (with R^2 adjusted >0.85)
T1/2 shorter than the time-span used to calculate lambda
The maximum plasma concentration (Cmax) and the time to reach Cmax (tmax) were derived directly from the plasma concentration data.

[4] = Quantitative (thermodynamic) solubility determination, shake-flask, LCMS against calibration line; format: physicochemical; conditions: for solubility at 4 h: 25 °C, thermodynamic from solid; for Solubility in water: room temperature, suspensions stirred for 18 h, LCMS
Method: The thermodynamic solubility of Rabeximod free base (Form 1) was determined in 3 different USP buffers (50 mM) ranging from pH 1.2 to pH 7.4 and in water (Exp. ID: QSA21-24) by the shake-flask method at 25° C. (
Table ). Approximately 30 mg was added to approximately 1 ml of the selected buffer and the resulting suspension was equilibrated at RT for 4 hours under continuous stirring. After 15 min and after 4 h of stirring, the pH of the solution was recorded. Upon completion of the equilibration time, the suspensions were centrifuged. The solution was filtered and diluted before LCMS analysis to determine the API concentration in solution. The residue was dried under vacuum and the obtained dried solids were analyzed by XRPD. A standard LC calibration curve was prepared, and the diluted mother liquors were measured to determine the API concentration.
The solubility of the freebase (Form 1) and salts prepared by scale-up was determined in water at room temperature. Suspensions were stirred for 18 h after which the liquid phase was isolated and measured by LCMS against a calibration line. The solids were dried and measured by XRPD to determine the solid form. The lowest solubility was determined for the freebase (Form 1). The signal was lower than the calibration line and therefore the solubility was determined to be <0.005 mg/ml. […] The experimental details are described in table 5.
Table 5. Experimental details and results of the solubility determination for Rabeximod free base Form 1) as well as salt Mes1 in water and in 3 buffers with pH range 1.2-7.4. The pH of the solutions after 15 minutes and 4 hours are reported. The solubility was determined after 4h equilibration by measuring the liquid phase with LCMS against a calibration line.

[5] = Qualitative solubility determination in water at room temperature (visual, water added until dissolved); format: physicochemical; conditions: for Solubility in water: RT, estimated by adding water to the salt until dissolved; for Dissolution in water (in words): room temperature
Method: The solubility of the salts in water at RT was estimated by adding water to the salt until the salt dissolved. […] From the TGMS data it was estimated whether the salts are stochiometric hydrates or not.
The solubility of a selection of salts from the salt screen was estimated at room temperature in water. To approximately 2 mg of salt, solvent aliquots were added in steps of 50 μl until the material was dissolved as observed visually by the naked eye.

[6] = i.v., 3.00 mg/kg, male CD1 mice
[7] = male, CD-1, mouse, plasma, po, 30 mg/kg, male CD1 mice
[8] = p.o., 30.0 mg/kg, male CD1 mice
[9] = male, CD-1, mouse, plasma, iv, 3 mg/kg, male CD1 mice

Salt form after AAC [1] | AUC0-inf [3, 6] [ng·h/mL] | T1/2 [3, 6] [h] | Time of peak plasma concentration (tmax) [3, 6] [h] | Vss [3, 6] [L/kg] | clearance [3, 6] [mL/min/kg] | mean C0 [3, 6] [ng/mL] | mean Cmax [3, 6] [ng/mL] | CL as % of mouse liver blood flow ([3]; i.v., 3.00 mg/kg) [%] | AUC0-last [3, 8] | Time of peak plasma concentration (tmax) [3, 8] [h] | mean Cmax [3, 8] [ng/mL] | Solubility in water [5] [µg/mL] | Compound | also measured
Mes | 2320 | 9.80 | 0.0833 | 15.9 | 21.5 | 507 | 383 | 17.9 | 11 600 h*ng/ml | 2.00 | 707 | 13300 | Cc1cc2nc3c4cc(Cl)ccc4n(CC(=O)NCCN(C)C)c3nc2cc1C [Rabeximod Mes] | Water uptake ([2]; DVS, 25° C.): 12.2%; Form after DVS ([2]; sorption-desorption-sorption 40-95-0-40% RH, 25° C., HT-XRPD): Mes1; half-life [3, 7]: 8.93 h; Solubility ([4]; medium HCl, pH buffer 1.2, 4 h equilibration, listed as Mes (TCS35)): 0.014 mg/mL (≈ 34.2 µM); Solubility ([4]; medium phosphate buffer, pH buffer 6.5, 4 h equilibration, listed as Mes (TCS35)): 0.042 mg/mL (≈ 102 µM); Solubility ([4]; medium water, listed as Mes (TCS35)): 13.26 mg/mL (≈ 32300 µM); solubility at 4 h ([4]; phosphate buffer, pH 7.4, aqueous buffer, medium phosphate buffer, pH buffer 7.4, 4 h equilibration): 3 µg/mL (≈ 7.32 µM); Solubility in water ([4]; listed as Mes1): 13300 µg/mL (≈ 32400 µM)
– | 681 | – | – | 49.4 | 73.4 | – | 150 | 61.2 | – | 4.00 | – | – | Cc1cc2nc3c4cc(Cl)ccc4n(CC(=O)NCCN(C)C)c3nc2cc1C [Rabeximod, 9-Chloro-2,3-dimethyl-6-(N,N-dimethylaminoethylamino-2-oxoethyl)-6H-indolo-[2,3-b]quinoxaline] | Physical stability upon exposure to relative humidity ([2]; relative humidity values between 0-95%): remained physically stable; Hygroscopicity classification (European Pharmacopoeia) ([2]; water uptake at 25° C./80%RH): slightly hygroscopic; Tmax ([3]; male, CD-1, mouse, plasma, iv, 3 mg/kg, i.v., 3.00 mg/kg, male CD1 mice, read-out: Time of peak plasma concentration (tmax)): 5 min; C0 [3, 9]: 351 ng/mL; half-life [3, 9]: 8.99 h; AUC(0-t) [3, 7]: 8330 ng·h/mL; Cmax [3, 7]: 728 ng/mL; solubility at 4 h ([4]; HCl buffer, pH 1.2, simulated gastric fluid, medium HCl, pH buffer 1.2, 4 h equilibration): 13 µg/mL (≈ 31.7 µM); Solubility ([4]; medium phosphate buffer, pH buffer 6.5, 4 h equilibration, listed as Form 1 (SM)): 0.005* mg/ml; Solubility ([4]; medium phosphate buffer, pH buffer 7.4, 4 h equilibration, listed as Form 1 (SM)): <LOD; Solubility ([4]; medium water, listed as Form 1 (SM)): <0.005 mg/mL; Solubility in water ([4]; listed as freebase): < 5 µg/mL; Dissolution in water (in words) [5]: close to insoluble in water; Dissolution in water (in words) ([5]; listed as freebase): no sign of dissolution
HCl | 2220 | 8.43 | 0.0833 | 14.2 | 22.6 | 600 | 454 | 18.8 | 13 700 h*ng/ml | 4.00 | 893 | 2000 to 5700 | Cc1cc2nc3c4cc(Cl)ccc4n(CC(=O)NCCN(C)C)c3nc2cc1C [Rabeximod HCl] | Solubility ([4]; medium water, listed as HCI (TCS160)): 5.45 mg/mL; Solubility in water ([4]; listed as HCl1): 5500 µg/mL
Mao | 1870 | 8.43 | 0.0833 | 16.9 | 26.8 | 390 | 355 | 22.3 | 11 400 h*ng/ml | 0.17 | 1140 | 5500 to 10200 | Cc1cc2nc3c4cc(Cl)ccc4n(CC(=O)NCCN(C)C)c3nc2cc1C [Rabeximod Mao] | Solubility ([4]; medium water, listed as Mao (TCS161)): 5.26 mg/mL (≈ 12800 µM); Solubility in water ([4]; listed as Mao1): 5300 µg/mL (≈ 12900 µM)

Reference: US11643415B1, “Rabeximod compounds” (CYXONE AB, priority 2021, dated 2023)
